In paper PMC4604124, “In Vitro Characterization of the Pharmacological Properties of the Anti-Cancer Chelator, Bp4eT, and Its Phase I Metabolites” (PLoS ONE, 2015):
Several values for one entry are separate records, joined by “and”; a condition that tells them apart may be missing. Equal values may be shown once.

Legend:
[1] = test system: MCF-7 human breast adenocarcinoma cells; test: MTT cytotoxicity assay, MCF-7 cells; assay type: cell-based; details: MCF-7, 5 000 b/j
Experimental: For cytotoxicity experiments, cancer cells were seeded at a density of 5,000 (MCF-7), 10,000 (HL-60) or 2,000 cells/well (HCT116 and A549) in 96-well plates (TPP) for 24 h/37°C prior to the addition of examined agents. The non-cancerous cells, 3T3 and H9c2 cells, were cultured for 24 h/37°C in 96-well plates at a density of 10,000 cells/well, the medium was then changed to serum- and pyruvate-free DMEM (Sigma-Aldrich) and incubated with the cells for another 24 h/37°C. The cytotoxic effects of Bp4eT and its metabolites were studied at different concentrations after a 72 h/37°C incubation. In order to aid the dissolution of the lipophilic ligands, 0.1% dimethyl sulfoxide (v/v) (DMSO; Sigma-Aldrich) was present in the culture medium of all groups. At this concentration, DMSO had no effect on cellular proliferation or viability.
The viability of cells were determined using an MTT assay (Sigma-Aldrich) according to previously established methods. The optical density of soluble MTT was measured at λ = 570 nm, subtracting the λ = 690 nm background using a Tecan Infinite 200M plate reader (Tecan Group, Männedorf, Switzerland). The viability or proliferation of experimental groups was expressed as a percentage of the untreated controls (100%).
SigmaStat for Windows 3.5 (Systat Software, San Jose, CA, USA) statistical software package was utilized to analyze results. The data are expressed as the mean ± SD of a given number of experiments. Statistical significance was determined using a one-way ANOVA with a Bonferroni post-hoc test or Student’s t-test. The results were considered to be statistically significant when p < 0.05. The IC50 values were calculated using CalcuSyn 2.0 software (Biosoft, Cambridge, UK). Cell cycle analysis was evaluated using MultiCycle AV Software (Phoenix Flow Systems, San Diego, CA, USA).

caspases 3/7 = test: Caspase activity, luminescent kit, caspases 3/7; assay type: cell-based, human; details: for kaspáza (3) a 7, raw signal / kaspáza (3) a 7, signal / viabilita: individual experiments by date; for kaspáza (3) a 7, raw signal, průměry / kaspáza (3) a 7, % kontroly / kaspáza (3) a 7, signal / viabilita, průměry: mean; for kaspáza (3) a 7, % kontroly / kaspáza (3) a 7, signal / viabilita / kaspáza (3) a 7, signal / viabilita, průměry: normalised to viability
Experimental: (§1) To assess the effect of the compounds on caspase activity, MCF-7 cells were incubated with 100 nM Bp4eT or its metabolites for 3, 24 or 72 h/37°C in 96-well plates, as described above. The cells were then lysed by adding 100 μL of cold lysis buffer (100 mM HEPES, 10 mM CHAPS, 10 mM D-L-dithiothreitol, pH 7.4) to 100 μL of medium in each well. Lysates were immediately frozen at -80°C. Thawed lysates were used to assess caspase activity using luminescent kits for caspases 3/7, 8 and 9 (Promega, Madison, WI, USA). The luminescence was measured using the Tecan Infinite 200M plate reader. Caspase activity in the experimental groups was corrected according to the cellular viability of each group and expressed as a percentage of activity of the untreated control (100%).

caspase 9 = test: Caspase activity, luminescent kit, caspase 9; assay type: cell-based, human; details: for kaspáza 9, raw signal / kaspáza 9, signal / viabilita: individual experiments by date; for kaspáza 9, raw signal, průměry / kaspáza 9, % kontroly / kaspáza 9, signal / viabilita, průměry: mean; for kaspáza 9, % kontroly / kaspáza 9, signal / viabilita / kaspáza 9, signal / viabilita, průměry: normalised to viability
Experimental: as §1

`CCNC(=O)NN=C(c1ccccc1)c1ccccn1` [E-Bp4eS, 2-benzoylpyridine 4-ethylsemicarbazone] was tested, and the IC50 ([1]; MTT, single experiment (by date), read-out: IC50) was 169 µM and 199 µM and 271 µM, the “MTT, value relative to 0 μM = 100” value ([1]; koncentrace 1 μM, průměr (mean)) was 97.81 and the “MTT, value relative to 0 μM = 100” value ([1]; koncentrace 1 μM, single experiment (by date)) was 92.729 and 97.0185 and 91.1778 and 97.3834 and 110.755. For the same compound, the “MTT, value relative to 0 μM = 100” value ([1]; koncentrace 3 μM, průměr (mean)) was 98.68, the “MTT, value relative to 0 μM = 100” value ([1]; koncentrace 3 μM, single experiment (by date)) was 98.4078 and 88.0788 and 100.293 and 107.936 and the “MTT, value relative to 0 μM = 100” value ([1]; koncentrace 10 μM, průměr (mean)) was 97.39. For the same compound, the “MTT, value relative to 0 μM = 100” value ([1]; koncentrace 10 μM, single experiment (by date)) was 92.0003 and 97.1637 and 90.3424 and 98.5326 and 108.927, the “MTT, value relative to 0 μM = 100” value ([1]; koncentrace 30 μM, průměr (mean)) was 96.90 and the “MTT, value relative to 0 μM = 100” value ([1]; koncentrace 30 μM, single experiment (by date)) was 97.756 and 80.695 and 97.8856 and 111.258. The “MTT, value relative to 0 μM = 100” value ([1]; koncentrace 100 μM, průměr (mean)) was 90.08, the “MTT, value relative to 0 μM = 100” value ([1]; koncentrace 100 μM, single experiment (by date)) was 88.6813 and 85.2546 and 75.1399 and 92.8747 and 108.447 and the “MTT, value relative to 0 μM = 100” value ([1]; koncentrace 300 μM, průměr (mean)) was 23.35. The “MTT, value relative to 0 μM = 100” value ([1]; koncentrace 300 μM, single experiment (by date)) was 24.0916 and 23.1141 and 17.816 and 28.3884, the “MTT, value relative to 0 μM = 100” value ([1]; koncentrace 1000 μM, průměr (mean)) was 23.56 and the “MTT, value relative to 0 μM = 100” value ([1]; koncentrace 1000 μM, single experiment (by date)) was 23.4887 and 24.7991 and 25.8548 and 20.0906. The “kaspáza (3) a 7, raw signal” value (caspases 3/7; 3 hodiny) was 2046.5 and 1555.5 and 1698 and 1596, the “kaspáza (3) a 7, raw signal, průměry” value (caspases 3/7; 3 hodiny) was 1724 and the “kaspáza (3) a 7, % kontroly” value (caspases 3/7; 3 hodiny) was 106.30 % kontroly. For the same compound, the “kaspáza (3) a 7, signal / viabilita” value (caspases 3/7; 3 hodiny) was 20.8429 and 15.8422 and 17.2935 and 16.2547, the “kaspáza (3) a 7, signal / viabilita, průměry” value (caspases 3/7; 3 hodiny) was 17.5583 and the “kaspáza (3) a 7, raw signal” value (caspases 3/7; 24 hodin) was 2362.5 and 2475 and 2765.5 and 2572. The “kaspáza (3) a 7, raw signal, průměry” value (caspases 3/7; 24 hodin) was 2543.75, the “kaspáza (3) a 7, % kontroly” value (caspases 3/7; 24 hodin) was 112.45 % kontroly and the “kaspáza (3) a 7, signal / viabilita” value (caspases 3/7; 24 hodin) was 23.7515 and 24.8825 and 27.8031 and 25.8577. For the same compound, the “kaspáza (3) a 7, signal / viabilita, průměry” value (caspases 3/7; 24 hodin) was 25.5737, the “kaspáza (3) a 7, raw signal” value (caspases 3/7; 72 hodin) was 7302.5 and 8023 and 7227 and 8569 and the “kaspáza (3) a 7, raw signal, průměry” value (caspases 3/7; 72 hodin) was 7780.38. For the same compound, the “kaspáza (3) a 7, % kontroly” value (caspases 3/7; 72 hodin) was 107.49 % kontroly, the “kaspáza (3) a 7, signal / viabilita” value (caspases 3/7; 72 hodin) was 74.6601 and 82.0264 and 73.8882 and 87.6086 and the “kaspáza (3) a 7, signal / viabilita, průměry” value (caspases 3/7; 72 hodin) was 79.5458. The “kaspáza 9, raw signal” value (caspase 9; 3 hodiny) was 5048 and 2733 and 3173 and 2706.5, the “kaspáza 9, raw signal, průměry” value (caspase 9; 3 hodiny) was 3415.12 and the “kaspáza 9, % kontroly” value (caspase 9; 3 hodiny) was 105.55 % kontroly. The “kaspáza 9, signal / viabilita” value (caspase 9; 3 hodiny) was 51.4121 and 27.8346 and 32.3159 and 27.5647, the “kaspáza 9, signal / viabilita, průměry” value (caspase 9; 3 hodiny) was 34.7818 and the “kaspáza 9, raw signal” value (caspase 9; 24 hodin) was 3856 and 3865 and 5378.5 and 4257. The “kaspáza 9, raw signal, průměry” value (caspase 9; 24 hodin) was 4339.12, the “kaspáza 9, % kontroly” value (caspase 9; 24 hodin) was 110.34 % kontroly and the “kaspáza 9, signal / viabilita” value (caspase 9; 24 hodin) was 38.7665 and 38.857 and 54.073 and 42.798. For the same compound, the “kaspáza 9, signal / viabilita, průměry” value (caspase 9; 24 hodin) was 43.6236, the “kaspáza 9, raw signal” value (caspase 9; 72 hodin) was 22791 and 20686 and 21610 and 23932 and the “kaspáza 9, raw signal, průměry” value (caspase 9; 72 hodin) was 22254.8. For the same compound, the “kaspáza 9, % kontroly” value (caspase 9; 72 hodin) was 104.60 % kontroly, the “kaspáza 9, signal / viabilita” value (caspase 9; 72 hodin) was 233.013 and 211.492 and 220.939 and 244.678 and the “kaspáza 9, signal / viabilita, průměry” value (caspase 9; 72 hodin) was 227.53.
